Series [1] in a line: Solubility of paliroden and xaliproden in trans-tympanic compositions and in water (Example 2). Format: physicochemical. The procedure:
Eight compositions compatible with trans-tympanic injections were prepared: four thermoreversible gel compositions and four lipid-based mucoadhesive solutions. These eight compositions were prepared both with paliroden fumarate as active agent, and with xaliproden hydrochloride as active agent. The solubility of respectively paliroden and xaliproden in the compositions was measured.

The test system of series [2] is male Wistar rats. Nature of the series: ABR/DPOAE assessment, noise-induced permanent hearing loss, delayed trans-tympanic treatment (Example 7). Format: in vivo. Particulars: T0+28 days, versus traumatized animals untreated or vehicle; treatment 2 days and 9 days post-noise. The procedure: Forty male Wistar rats were selected and evenly distributed to treatment and control groups, each group comprising 8 rats at the end of the study. Randomization was performed using the ABR threshold in the left ear at 16 kHz as a criterium. The “sham” group consists in rats (n=8) that received neither noise exposure nor trans-tympanic injection. The “traumatized NaCl” group consists of rats (n=8) that received noise exposure only and trans-tympanic injections of a saline solution. The “traumatized vehicle” group consists in rats (n=8) that received noise exposure and trans-tympanic injections of placebo (a composition comprising Poloxamer 407 (7,2% w/w), Poloxamer 188 (8% w/w) and Cremophor EL® (20% w/w) in phosphate buffer pH=7.4, the percentages being expressed relative to the total weight of the composition). The “traumatized paliroden” group consists in rats (n=8) that received noise exposure and trans-tympanic injections of a composition comprising paliroden (fumarate salt), corresponding to composition 4P described in Example 2. The “traumatized xaliproden” group consists in rats (n=10) that received noise exposure and a trans-tympanic injection of a composition comprising xaliproden (hydrochloride salt), corresponding to composition 4X described in Example 2. […]

The test system of series [3] is male Wistar rats. The experiment in a line: ABR thresholds after acoustic trauma and trans-tympanic treatment (Example 5). Format: in vivo. The procedure: Fourty-three male Wistar rats were selected and distributed to treatment and control groups, each group comprising between 6 to 9 rats at the start of the study. Randomization was performed using the ABR threshold in the left ear at 16 kHz as a criterium. The “sham” group comprises 7 rats, which received neither noise exposure nor trans-tympanic injection. […] The “traumatized” group comprises 9 rats, which received noise exposure only and no treatment. The “traumatized vehicle” group comprises 7 rats, which received noise exposure and a trans-tympanic injection of placebo (a composition comprising only Cremophor EL®). The “traumatized paliroden” group comprises 7 rats, which received noise exposure and a trans-tympanic injection of a composition comprising paliroden (fumarate salt), corresponding to composition 7P described in Example 2. The “traumatized xaliproden” group comprises 7 rats, which received noise exposure and a trans-tympanic injection of a composition comprising xaliproden (hydrochloride salt), corresponding to composition 7X described in Example 2.
All animals (except sham group) received a bilateral noise exposure at a noise band of 8-16 kHz at 115 dB SPL RMS during 2 hours (from time T0 to time T0+2 hours).
30 μL of compositions comprising either paliroden or xaliproden as active agent were administered once in both ears of each rat of the treatment groups (30 μL per ear) via trans-tympanic administration by injection between the eardrum and the round window by means of a needle which crosses the eardrum, 4 hours after the start of the noise exposure (i.e. at T0+4 hours, thus 2 hours after the end of the noise exposure), under isoflurane anesthesia. The compositions correspond respectively to compositions 7P and 7X described in Example 2, i.e. they comprise only Cremophor EL® as excipient and either paliroden (fumarate salt) or xaliproden (hydrochloride salt) as active agent. The dose of paliroden (fumarate salt) that is administered is 240 μg per ear of the rats belonging to the “traumatized paliroden” group (240 μg in the 30 μL that are injected via trans-tympanic route by injection between the eardrum and the round window by means of a needle which crosses the eardrum). The dose of xaliproden (hydrochloride salt) that is administered is 192 μg per ear of the rats belonging to the “traumatized xaliproden” group (192 μg in the 30 μL that are injected via trans-tympanic route by injection between the eardrum and the round window by means of a needle which crosses the eardrum). […]

[4] abbreviates: one day following noise exposure, from 25 to 32 kHz, paliroden 240 μg/ear, xaliproden 192 μg/ear.

Structures can show the parent of a compound that is named as a salt. Where only a bound is given, the exact number is not on record here.

For orientation: solubility means the dissolved amount per volume that the medium holds. Read a low solubility as a poorly soluble substance.

Regarding `FC(F)(F)c1cccc(C2=CCN(CCc3ccc(-c4ccccc4)cc3)CC2)c1` [paliroden (fumarate salt), 1-[2-(4-biphenylyl)ethyl]-4-(3-trifluoromethylphenyl)-1,2,3,6-tetrahydropyridine], the solubility in series [1] is under 100 µg/mL. Also, the “Effect on ABR thresholds, DPOAE amplitudes, ABR Wave I amplitudes” value with male Wistar rats [2] was “did not show effect”. The “ABR Threshold shifts reduction in comparison to the traumatized vehicle group” value in the series with male Wistar rats [3] (7 days post-noise, from 16 to 32 kHz, paliroden 240 μg/ear) is reported as 15-20 dB; in the series with male Wistar rats [3] (setting [4]), “approximately 10 dB”.

In series [1], `FC(F)(F)c1cccc(C2=CCN(CCc3ccc4ccccc4c3)CC2)c1` [xaliproden (hydrochloride salt), 1-[2-(2-naphthyl)ethyl]-4-(3-trifluoromethylphenyl)-1,2,3,6-tetrahydropyridine] gave a solubility of under 100 µg/mL. Moreover, the “Effect on ABR thresholds, DPOAE amplitudes, ABR Wave I amplitudes” value with male Wistar rats [2] is “did not show effect”. Further, the “ABR Threshold shifts reduction in comparison to the traumatized vehicle group” value with male Wistar rats [3] (7 days post-noise, from 25 to 32 kHz, xaliproden 192 μg/ear) is listed as “approximately 15 dB”; with male Wistar rats [3] (setting [4]), “approximately 10 dB”.

These data come from patent publication US20230390273A1, “4-PHENYL-TETRAHYDROPYRIDINE DERIVATIVES FOR TREATING HEARING DISEASES” (CILCARE DEV, priority 2021, published 2023).
